Results as given in ChEMBL document CHEMBL1201862, “PubChem BioAssay data set” (2004).
Activity calls are given as the source filed them.

Experiments:
[1] = target: T1, Coagulation factor XII (Homo sapiens, UniProt P00748); assay type: functional;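 note: activated factor XIIa alpha cleaving a fluorogenic AMC peptide substrate; inhibitor potency from loss of enzyme activity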
T1 sequence (P00748 whole entry): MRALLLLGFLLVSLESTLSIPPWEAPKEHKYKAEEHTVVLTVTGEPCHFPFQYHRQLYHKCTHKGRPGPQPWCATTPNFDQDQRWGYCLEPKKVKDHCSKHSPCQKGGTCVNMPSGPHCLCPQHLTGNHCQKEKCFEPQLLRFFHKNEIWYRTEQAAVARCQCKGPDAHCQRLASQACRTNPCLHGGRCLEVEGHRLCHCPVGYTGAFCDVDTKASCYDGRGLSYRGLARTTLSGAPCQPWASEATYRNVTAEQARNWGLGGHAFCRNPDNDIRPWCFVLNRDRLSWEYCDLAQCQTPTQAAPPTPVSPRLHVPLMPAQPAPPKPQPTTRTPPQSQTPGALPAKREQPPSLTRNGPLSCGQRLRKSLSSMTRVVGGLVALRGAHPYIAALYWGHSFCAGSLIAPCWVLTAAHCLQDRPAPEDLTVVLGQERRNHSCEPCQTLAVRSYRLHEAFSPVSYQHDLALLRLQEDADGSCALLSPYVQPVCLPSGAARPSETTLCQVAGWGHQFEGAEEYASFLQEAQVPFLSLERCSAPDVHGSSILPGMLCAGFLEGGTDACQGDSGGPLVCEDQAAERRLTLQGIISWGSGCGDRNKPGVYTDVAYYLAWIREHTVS

[2] = target: T1, Coagulation factor XII; test: activated coagulation factor XII inhibitor potency, concentration-effect curve, cell-free (AID 716); assay type: functional
[3] = target: T2, Sphingosine 1-phosphate receptor 4 (Homo sapiens, UniProt O95977); test: Late-stage fluorescence dose response cell-based assay to identify agonists of the Sphingosine 1-Phosphate Receptor 4 (S1P4): purchased compounds EC50. [Related pubchem assays (depositor defined):AID1509, AID1523, AID1563, AID1686, AID1701, AID1801]; assay type: functional
T2 sequence (O95977 whole entry): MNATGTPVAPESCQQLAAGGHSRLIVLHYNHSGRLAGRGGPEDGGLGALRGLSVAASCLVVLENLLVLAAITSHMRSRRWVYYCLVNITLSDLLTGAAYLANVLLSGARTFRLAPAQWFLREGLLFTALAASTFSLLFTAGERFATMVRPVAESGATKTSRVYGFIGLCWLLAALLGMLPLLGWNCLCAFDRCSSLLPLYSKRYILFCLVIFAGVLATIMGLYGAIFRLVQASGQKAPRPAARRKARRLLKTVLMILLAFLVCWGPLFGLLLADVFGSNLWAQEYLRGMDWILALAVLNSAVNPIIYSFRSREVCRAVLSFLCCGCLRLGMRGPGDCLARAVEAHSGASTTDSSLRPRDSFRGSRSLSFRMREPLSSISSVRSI

[4] = Vero E6 cell cytotoxicity, dose response, cytotoxicity control for non-replicating M. tuberculosis project, secondary assay (AID 492998); assay type: functional, VeroE6; conditions: Vero C1008
[5] = target: T3, C-C chemokine receptor type 6 (Homo sapiens, UniProt P51684); test: antagonism of CCR6 beta-arrestin recruitment – cell-based, luminescent beta-arrestin readout, dose response (AID 504728); assay type: functional
T3 sequence (P51684 whole entry): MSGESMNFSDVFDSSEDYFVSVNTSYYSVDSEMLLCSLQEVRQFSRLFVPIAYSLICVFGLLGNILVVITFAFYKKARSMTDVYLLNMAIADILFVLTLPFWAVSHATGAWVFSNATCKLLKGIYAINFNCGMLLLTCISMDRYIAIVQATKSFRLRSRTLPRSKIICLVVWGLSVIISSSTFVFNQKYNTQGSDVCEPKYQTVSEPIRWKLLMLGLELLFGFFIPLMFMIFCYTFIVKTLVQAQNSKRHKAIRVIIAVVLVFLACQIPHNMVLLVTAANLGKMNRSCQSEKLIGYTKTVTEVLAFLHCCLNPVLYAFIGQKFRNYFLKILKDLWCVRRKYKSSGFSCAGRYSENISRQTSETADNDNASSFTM

[6] = HepG2 cell cytotoxicity, dose response, cytotoxicity control for non-replicating M. tuberculosis project (AID 489018); assay type: functional; conditions: Mycobacterium tuberculosis
[7] = cells; assay type: functional
[8] = THP-1 cell cytotoxicity, dose response, cytotoxicity control for non-replicating M. tuberculosis project (AID 489025); assay type: functional
[9] = system: INS1; test: INS-1E survival protection against cytokine death – cell-based, luminescence, retest, dose response (AID 449756); assay type: functional; conditions: Rattus norvegicus;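 note: cell death triggered by IL-1 beta plus TNF-alpha plus IFN-gamma mixture; protective hits raise ATP signal compared with cytokine alone wells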
[10] = target: Beta-galactosidase (Escherichia coli, UniProt Q8VNN2); test: detection-enzyme interference by beta-gal modulators – biochemical, E. coli enzyme, set 3, artefact control for CCR6 antagonist project, dose response (AID 504712); assay type: functional
[11] = target: T4, Short transient receptor potential channel 4 (Mus musculus, UniProt Q9QUQ5); test: potentiation of DAMGO-evoked TRPC4 calcium signal – cell-based, HEK293 TRPC4/mu-opioid, Fluo-4 calcium, EC20 DAMGO, dose response (AID 434941); assay type: functional
T4 sequence (Q9QUQ5 whole entry): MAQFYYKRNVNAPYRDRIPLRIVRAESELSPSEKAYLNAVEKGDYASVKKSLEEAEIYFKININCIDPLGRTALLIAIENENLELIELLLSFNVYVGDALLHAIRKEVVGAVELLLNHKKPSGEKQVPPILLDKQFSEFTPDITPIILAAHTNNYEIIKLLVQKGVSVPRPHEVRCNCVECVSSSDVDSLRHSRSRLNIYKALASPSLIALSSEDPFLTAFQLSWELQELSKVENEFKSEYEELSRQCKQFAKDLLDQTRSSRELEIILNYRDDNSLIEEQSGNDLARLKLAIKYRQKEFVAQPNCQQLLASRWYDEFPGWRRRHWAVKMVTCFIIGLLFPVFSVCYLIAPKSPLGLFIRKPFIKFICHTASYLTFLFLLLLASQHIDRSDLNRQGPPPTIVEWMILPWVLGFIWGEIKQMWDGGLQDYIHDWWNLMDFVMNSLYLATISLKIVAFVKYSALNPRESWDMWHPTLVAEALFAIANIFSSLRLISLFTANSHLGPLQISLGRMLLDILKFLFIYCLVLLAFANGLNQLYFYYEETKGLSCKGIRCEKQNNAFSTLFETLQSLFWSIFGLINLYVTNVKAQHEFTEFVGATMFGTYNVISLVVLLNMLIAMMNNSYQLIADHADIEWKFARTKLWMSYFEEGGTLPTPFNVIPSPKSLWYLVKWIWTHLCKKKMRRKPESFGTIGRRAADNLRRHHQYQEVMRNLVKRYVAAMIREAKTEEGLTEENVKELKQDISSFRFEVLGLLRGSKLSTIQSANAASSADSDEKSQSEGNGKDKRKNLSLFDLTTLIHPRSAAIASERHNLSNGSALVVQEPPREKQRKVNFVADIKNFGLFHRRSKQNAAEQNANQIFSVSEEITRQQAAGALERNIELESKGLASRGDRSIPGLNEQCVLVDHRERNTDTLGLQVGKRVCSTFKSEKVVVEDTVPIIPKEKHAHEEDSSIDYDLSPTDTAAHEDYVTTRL

[12] = target: Cytochrome P450 2D6 (Homo sapiens, UniProt P10635);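 note: CYP2D6 member of a cytochrome P450 panel assay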
[13] = target: Cytochrome P450 2C9 (Homo sapiens, UniProt P11712)
Chain of Cytochrome P450 2C9 (P11712 whole entry): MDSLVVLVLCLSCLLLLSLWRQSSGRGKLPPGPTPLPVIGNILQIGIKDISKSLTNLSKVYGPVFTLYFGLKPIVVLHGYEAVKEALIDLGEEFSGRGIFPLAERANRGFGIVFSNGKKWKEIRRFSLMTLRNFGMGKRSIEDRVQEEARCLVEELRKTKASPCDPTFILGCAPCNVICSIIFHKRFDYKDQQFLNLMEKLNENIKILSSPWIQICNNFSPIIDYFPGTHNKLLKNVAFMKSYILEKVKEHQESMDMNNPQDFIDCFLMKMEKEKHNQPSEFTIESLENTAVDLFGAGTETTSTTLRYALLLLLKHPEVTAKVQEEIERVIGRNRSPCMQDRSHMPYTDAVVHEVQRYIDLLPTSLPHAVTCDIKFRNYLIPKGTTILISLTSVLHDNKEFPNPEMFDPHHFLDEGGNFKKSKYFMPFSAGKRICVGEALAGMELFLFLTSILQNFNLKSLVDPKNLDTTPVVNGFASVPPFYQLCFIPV

Chain of Beta-galactosidase (Q8VNN2 whole entry): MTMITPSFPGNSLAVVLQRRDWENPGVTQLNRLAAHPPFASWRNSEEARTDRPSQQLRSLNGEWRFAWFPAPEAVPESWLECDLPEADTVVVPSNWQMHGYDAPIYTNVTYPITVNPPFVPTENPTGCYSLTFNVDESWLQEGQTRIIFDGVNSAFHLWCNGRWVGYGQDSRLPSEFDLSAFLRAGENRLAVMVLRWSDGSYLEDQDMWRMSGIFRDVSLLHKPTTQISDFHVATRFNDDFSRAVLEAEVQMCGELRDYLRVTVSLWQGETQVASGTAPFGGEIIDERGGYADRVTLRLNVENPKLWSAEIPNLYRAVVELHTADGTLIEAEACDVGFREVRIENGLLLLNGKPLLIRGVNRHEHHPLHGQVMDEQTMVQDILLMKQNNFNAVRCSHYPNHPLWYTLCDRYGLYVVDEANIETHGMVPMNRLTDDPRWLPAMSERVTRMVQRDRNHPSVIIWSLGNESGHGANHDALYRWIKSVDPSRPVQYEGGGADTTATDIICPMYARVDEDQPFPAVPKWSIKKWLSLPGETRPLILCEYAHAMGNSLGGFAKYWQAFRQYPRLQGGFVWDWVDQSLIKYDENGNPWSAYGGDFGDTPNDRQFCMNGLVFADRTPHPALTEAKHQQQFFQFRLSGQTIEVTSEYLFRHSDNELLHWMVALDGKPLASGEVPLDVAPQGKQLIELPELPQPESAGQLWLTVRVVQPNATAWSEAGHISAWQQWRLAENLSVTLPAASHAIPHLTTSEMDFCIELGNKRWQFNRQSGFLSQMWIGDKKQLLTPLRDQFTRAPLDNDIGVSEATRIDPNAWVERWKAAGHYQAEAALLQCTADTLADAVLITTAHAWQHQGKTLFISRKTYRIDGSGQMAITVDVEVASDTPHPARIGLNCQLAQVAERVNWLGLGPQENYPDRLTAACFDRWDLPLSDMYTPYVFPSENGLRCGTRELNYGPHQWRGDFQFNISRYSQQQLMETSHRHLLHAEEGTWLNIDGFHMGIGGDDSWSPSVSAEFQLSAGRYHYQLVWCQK
Chain of Cytochrome P450 2D6 (P10635 whole entry): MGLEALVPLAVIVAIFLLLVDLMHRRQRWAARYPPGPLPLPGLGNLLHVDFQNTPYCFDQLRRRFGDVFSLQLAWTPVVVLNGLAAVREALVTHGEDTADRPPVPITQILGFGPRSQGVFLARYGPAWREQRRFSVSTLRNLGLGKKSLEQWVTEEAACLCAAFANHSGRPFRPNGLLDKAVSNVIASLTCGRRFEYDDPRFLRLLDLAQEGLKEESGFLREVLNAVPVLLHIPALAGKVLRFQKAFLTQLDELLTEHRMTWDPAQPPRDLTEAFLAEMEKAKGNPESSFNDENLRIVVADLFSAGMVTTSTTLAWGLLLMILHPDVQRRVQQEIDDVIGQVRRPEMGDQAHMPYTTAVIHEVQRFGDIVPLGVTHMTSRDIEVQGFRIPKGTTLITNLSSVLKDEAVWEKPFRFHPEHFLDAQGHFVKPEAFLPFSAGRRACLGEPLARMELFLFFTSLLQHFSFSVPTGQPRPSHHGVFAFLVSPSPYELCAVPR

CC(=O)N1CCc2c(sc(NC(=O)C3CC3)c2-c2nc3ccccc3s2)C1
IC50 [1]: 25.7 µM (active)

Cc1cc(N2CCCC2=O)cc(C)c1S(=O)(=O)NCCOc1ccccc1
IC50 [2]: > 50 µM (inactive)

Cc1nn(CC(C)C)c(Cl)c1C(=O)OC(C)C(=O)Nc1ccccc1 (centres undefined)
EC50 [3]: > 50 µM (inactive)

Cc1cc(N/N=C/c2ccc(F)cc2)nc(-n2nc(C)cc2C)n1
CC50 [4]: 15.6 µM (active)
IC50 [5]: > 66.6 µM (inactive)
CC50 [6]: > 20 µM (active)
IC50 [7]: < 0.1 µM (active)
CC50 [8]: 10.8 µM (active)
AC50 [9]: 2.81 µM (active)
IC50 [10]: > 66.6 µM (inactive)

Cc1ccc(/C=N/NC(=O)NC2CCCCC2)o1
EC50 [11]: 3.35 µM (active)

COc1ccc2[nH]cc(CCN(C)C)c2c1 [MEBUFOTENIN]
AC50 [12]: 20 µM (inconclusive)
EC50 [11]: 0.67 µM (active)
AC50 [13]: inconclusive
